From patent US20030104451A1, “Arrays using polymerized monomolecular films and methods for using and manufacturing the same” (priority 2001, published 2003)

Molecular target: T1, streptavidin (Streptomyces avidinii, UniProt P22629)
T1 construct: purchased Sigma-Aldrich
Assay: Competitive inhibition of streptavidin capture on biotin-PDTF by free biotin
Type: binding
Details: streptavidin preincubated 30 min with free biotin; chip 0.25 pmol/monolayer biotin (1% biotin-PDTF)
Excerpt: The remaining free protein (in this case streptavidin) concentration in solution can then be estimated with the MILD-MALDI-MS approach.
The surfaces were allowed to air dry.

Compound: O=C(O)CCCC[C@@H]1SC[C@@H]2NC(=O)N[C@@H]21 [biotin]
- free biotin excess over streptavidin at which competition is clearly seen: 100 -fold
